Results: ChEMBL document CHEMBL1201862, “PubChem BioAssay data set” (2004)
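A five-concentration, 48-hour dose response in 96-well plates underlies each endpoint, interpolated linearly between surrounding concentrations. Abbreviation: GI50, concentration required for 50% inhibition of growth.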 Active and inactive are the calls of the source. No stated cut-off is given here; in the data, active = GI50 up to about 1.1 µM and inactive = higher.

Tests used:
Test in all cases: DTP human tumour cell line panel, 48 h
SK-MEL-2 = system: SK-MEL-2
RPMI-8226 = system: RPMI-8226
OVCAR-8 = system: OVCAR-8
SK-MEL-28 = system: SK-MEL-28
HT-29 = system: HT-29
SNB-75 = system: SNB-75
SF-539 = system: SF-539
OVCAR-4 = system: OVCAR-4
NCI-H460 = system: NCI-H460
IGROV-1 = system: IGROV-1
UACC-62 = system: UACC-62
M14 = system: M14
SNB-19 = system: SNB-19
SK-MEL-5 = system: SK-MEL-5
A549 = system: A549
SF-268 = system: SF-268
HL-60 = system: HL-60
Malme-3M = system: Malme-3M
CAKI-1 = system: CAKI-1
HCC 2998 = system: HCC 2998

Compound: COc1ccccc1N1C(Cl)C(=O)C1c1c[nH]c2ccccc12 (stereo unspecified)
- GI50 (SK-MEL-2): > 100 µM (inactive)
- GI50 (RPMI-8226): > 100 µM (inactive)
- GI50 (OVCAR-8): > 100 µM (inactive)
- GI50 (SK-MEL-28): > 100 µM (inactive)
- GI50 (HT-29): > 100 µM (inactive)
- GI50 (SNB-75): > 100 µM (inactive)
- GI50 (SF-539): > 100 µM (inactive)
- GI50 (OVCAR-4): > 100 µM (inactive)
- GI50 (NCI-H460): > 100 µM (inactive)
- GI50 (IGROV-1): > 100 µM (inactive)
- GI50 (UACC-62): > 100 µM (inactive)
- GI50 (M14): > 100 µM (inactive)
- GI50 (SNB-19): 26.7 µM (inactive)
- GI50 (SK-MEL-5): > 100 µM (inactive)
- GI50 (A549): > 100 µM (inactive)
- GI50 (SF-268): > 100 µM (inactive)
- GI50 (HL-60): > 100 µM (inactive)

Compound: O=C(NN1C(=O)C(Cl)C1c1cccc([N+](=O)[O-])c1)c1ccccc1O (stereo unspecified)
- GI50 (SK-MEL-2): > 100 µM (inactive)
- GI50 (RPMI-8226): > 100 µM (inactive)
- GI50 (OVCAR-8): > 100 µM (inactive)
- GI50 (SK-MEL-28): > 100 µM (inactive)
- GI50 (HT-29): > 100 µM (inactive)
- GI50 (Malme-3M): 59.8 µM (inactive)
- GI50 (SNB-75): > 100 µM (inactive)
- GI50 (SF-539): > 100 µM (inactive)
- GI50 (OVCAR-4): > 100 µM (inactive)
- GI50 (NCI-H460): > 100 µM (inactive)
- GI50 (IGROV-1): 76.4 µM (inactive)
- GI50 (UACC-62): > 100 µM (inactive)
- GI50 (M14): > 100 µM (inactive)
- GI50 (SNB-19): 68.5 µM (inactive)
- GI50 (SK-MEL-5): > 100 µM (inactive)
- GI50 (A549): > 100 µM (inactive)
- GI50 (SF-268): > 100 µM (inactive)
- GI50 (HL-60): > 100 µM (inactive)

Compound: C=C(CCCO)[C@@H]1CC[C@@](C)(O)[C@H]1C
- GI50 (SK-MEL-2): > 100 µM (inactive)
- GI50 (RPMI-8226): > 100 µM (inactive)
- GI50 (OVCAR-8): > 100 µM (inactive)
- GI50 (SK-MEL-28): > 100 µM (inactive)
- GI50 (HT-29): > 100 µM (inactive)
- GI50 (Malme-3M): > 100 µM (inactive)
- GI50 (SNB-75): 33.1 µM (inactive)
- GI50 (CAKI-1): > 100 µM (inactive)
- GI50 (SF-539): > 100 µM (inactive)
- GI50 (OVCAR-4): > 100 µM (inactive)
- GI50 (NCI-H460): > 100 µM (inactive)
- GI50 (IGROV-1): > 100 µM (inactive)
- GI50 (UACC-62): > 100 µM (inactive)
- GI50 (HCC 2998): > 100 µM (inactive)
- GI50 (SNB-19): > 100 µM (inactive)
- GI50 (SK-MEL-5): > 100 µM (inactive)
- GI50 (A549): > 100 µM (inactive)

Compound: NC1C2C=CC(C2)C1C(=O)O (stereo unspecified)
- GI50 (SK-MEL-2): > 100 µM (inactive)
- GI50 (RPMI-8226): > 100 µM (inactive)
- GI50 (OVCAR-8): > 100 µM (inactive)
- GI50 (SK-MEL-28): > 100 µM (inactive)
- GI50 (HT-29): > 100 µM (inactive)
- GI50 (Malme-3M): > 100 µM (inactive)
- GI50 (SNB-75): > 100 µM (inactive)
- GI50 (CAKI-1): > 100 µM (inactive)
- GI50 (SF-539): 9.08 µM (inactive)
- GI50 (OVCAR-4): > 100 µM (inactive)
- GI50 (IGROV-1): > 100 µM (inactive)
- GI50 (UACC-62): > 100 µM (inactive)
- GI50 (M14): > 100 µM (inactive)
- GI50 (SNB-19): > 100 µM (inactive)
- GI50 (SK-MEL-5): > 100 µM (inactive)
- GI50 (A549): > 100 µM (inactive)
- GI50 (SF-268): > 100 µM (inactive)
- GI50 (HL-60): > 100 µM (inactive)

Compound: C=C1CC(OC)(C(O)C(=O)N[C@H]2OCO[C@H]3C2O[C@H](C[C@@H](CO)OC)C(C)(C)C3OC)O[C@H](C)[C@@H]1C (stereo partly specified)
- GI50 (SK-MEL-2): 0.0931 µM (active)
- GI50 (RPMI-8226): < 0.00931 µM (active)
- GI50 (OVCAR-8): < 0.00931 µM (active)
- GI50 (SK-MEL-28): < 0.00931 µM (active)
- GI50 (HT-29): < 0.00931 µM (active)
- GI50 (SNB-75): < 0.00931 µM (active)
- GI50 (CAKI-1): < 0.00931 µM (active)
- GI50 (SF-539): < 0.00931 µM (active)
- GI50 (OVCAR-4): < 0.00931 µM (active)
- GI50 (NCI-H460): < 0.00931 µM (active)
- GI50 (IGROV-1): < 0.00931 µM (active)
- GI50 (UACC-62): < 0.00931 µM (active)
- GI50 (SNB-19): < 0.00931 µM (active)
- GI50 (SK-MEL-5): < 0.00931 µM (active)
- GI50 (A549): < 0.00931 µM (active)
- GI50 (SF-268): < 0.00931 µM (active)
- GI50 (HL-60): < 0.00931 µM (active)

Compound: c1ccc(CN2CCC3(CC2)SSC2(CCN(Cc4ccccc4)CC2)SS3)cc1
- GI50 (SK-MEL-2): > 100 µM (inactive)
- GI50 (RPMI-8226): > 100 µM (inactive)
- GI50 (OVCAR-8): > 100 µM (inactive)
- GI50 (SK-MEL-28): 34.9 µM (inactive)
- GI50 (HT-29): 27.2 µM (inactive)
- GI50 (Malme-3M): 97.5 µM (inactive)
- GI50 (SNB-75): > 100 µM (inactive)
- GI50 (CAKI-1): > 100 µM (inactive)
- GI50 (SF-539): > 100 µM (inactive)
- GI50 (OVCAR-4): > 100 µM (inactive)
- GI50 (NCI-H460): > 100 µM (inactive)
- GI50 (IGROV-1): > 100 µM (inactive)
- GI50 (UACC-62): > 100 µM (inactive)
- GI50 (HCC 2998): 45.5 µM (inactive)
- GI50 (M14): > 100 µM (inactive)
- GI50 (SNB-19): > 100 µM (inactive)
- GI50 (SK-MEL-5): 57.3 µM (inactive)
- GI50 (A549): > 100 µM (inactive)
- GI50 (SF-268): > 100 µM (inactive)
